Values of other authors in patent publication US8828946B2, “Composition comprising interleukin-1 receptor antagonist and corticosteroid” (Orthogen AG, priority 2009, dated 2014).

Key:
[1] = test system: moderate knee osteoarthritis ab degree II-III; conditions: Case III; injections into the knee in the past (patient history)
[2] = test system: medial knee osteoarthritis ri degree IV and retropatellar; conditions: Case V; injections in the past (patient history)
[3] = test system: moderate rhizarthrosis ri; conditions: Case II; injections in the past (patient history)
impingement le shoulder = conditions: Case IV; previous injections (patient history)
low facet arthrosis = conditions: Case VII; in-patient injections into the low facets (patient history)
[4] = test system: partial rotator cuff rupture and subacromial constriction with complete shoulder stiffness le; conditions: Case IX; numerous injections into the left shoulder (patient history)

Molecule	effect in the treatment of osteoarthritis and degenerative spinal diseases (osteoarthritis; Anakinra alone)	effect in the treatment of osteoarthritis (osteoarthritis; alone, compared to a placebo treatment)	outcome of previous treatment [1]	outcome of previous treatment [2]	outcome of previous treatment [3]	outcome of previous treatment (impingement le shoulder)	outcome of previous treatment (low facet arthrosis)	outcome of previous treatment [4]
Anakinra	does not show any effect	did not show any effects	–	–	–	–	–	–
hyaluronic acid	–	–	unsuccessful	without clinical success	–	–	–	–
C[C@]12CCC(=O)C=C1CC[C@@H]1[C@@H]2C(=O)C[C@@]2(C)[C@H]1CC[C@]2(O)C(=O)CO [cortisone]	–	–	unsuccessful	without clinical success	without success	without success	without success	without success
